According to ChEMBL document CHEMBL1139617, “Total synthesis and bioactivity of unique flavone desmosdumotin B and its analogs” (2005):

Test system: Raji
Assay: Percent viability of Raji cells at concentration of 1000 mol ratio / 20 ng/mL TPA
Format: functional, Homo sapiens

`CC1=C(O)C(C)(C)C2=C(C(=O)CC(c3ccccc3)O2)C1=O` (stereo unspecified) and `CC1=C(O)C(C)(C)c2oc(-c3ccccc3)cc(=O)c2C1=O` [DESMOTUMOTIN B] are the same in Viability: 70% for the first, 70% for the second.

`CC(=O)C1=C(O)C(C)(C)C(=O)C(C)(C)C1=O` and `CC(=O)C1=C(O)C(C)=C(O)C(C)(C)C1=O` are the same in Viability: 60% for the first, 60% for the second.

`COC1=C(C)C(=O)c2c(oc(-c3ccccc3)cc2=O)C1(C)C` and `COC1=C(C)C(O)=C(C(=O)/C=C/c2ccccc2)C(=O)C1(C)C` [DESMOSDUMOTIN C] are the same in Viability: 70% for the first, 70% for the second.

`CC(=O)C1=C(O)C(C)(C)C(O)=C(C(C)=O)C1=O` and `CC(=O)C1=C(O)C(C)(C)C(O)=CC1=O` are the same in Viability: 60% for the first, 60% for the second.

First: CC(=O)c1c(O)cc(O)c(C(C)=O)c1O
Second: CC1=C(O)C(C)(C)C(O)=C(C(=O)/C=C/c2ccccc2)C1O (stereo unspecified)
The Viability of the first is lower: 60% for the first, 70% for the second.

`CC1(C)C(=O)C(C(=O)/C=C/c2ccccc2)=C(O)C(C)(C)C1=O` gave a Viability of 70%.
